Laboratory results taken from patent US5912229A, “Use of a pharmaceutical composition comprising an appetite-suppressing peptide” (Novo Nordisk Als, priority 1996, dated 1999).
Ends that are not written are not given here.

How the values were obtained:
[1] = system: fasted rats; details: cited from earlier work
[2] = system: Mice; test: Appetite suppression in mice, infant formula milk (Complan) consumption; assay type: in vivo
Method: (§1) Mice were deprived of their normal feed for two days and given free access to a 20% sucrose solution on the first day of feed deprivation. After the 2-day feed deprivation period, mice were injected intraperitoneally with 0.5 ml of a solution containing the test substance. Thirty minutes after injection, individual mice were placed in one of eight 15 cm^2 test box with a stainless steel grid floor and a glass drinking tube which projected into the box. The drinking tube was connected to a reservoir containing a 20% sucrose solution, and the interior of the drinking tube contained an electrode enabling the detection of drinking contacts with the solution by measuring the flow of a weak (unnoticeable) electric current through mice by means of an electronic apparatus connected to the drinking tube electrode and the stainless steel grid floor. Consumption of the sucrose solution was measured over a 10 minute period by electronically recording the total amount of contact with the sucrose solution during the test session. The degree of appetite suppression produced by a given test substance was determined by statistical comparison of the duration of sucrose consumption by control (vehicle treated) mice with that of mice treated with a test substance. The degree of appetite suppression in a treated group of mice was expressed as percent of the control groups response.
The method is as in Example 5, but instead of 20% sucrose, a solution of infant formula milk (Complan®) is used. The test substance is dissolved in a vehicle consisting of phosphate buffered saline with 1% albumin. Test substances dissolved in vehicle are injected either intravenously (IV) in a volume of 100 microliters, or intra-cerebroventricularly (ICV) in a volume of 10 microliters.
Mice were tested for appetite suppression as described in Example 8 after treatment with a test substance consisting of synthetic human GLP-2.

[3] = system: Mice; test: Appetite suppression in mice, 20% sucrose solution consumption; assay type: in vivo; details: intraperitoneal injection, 50 micrograms
Method: as §1, with “response. […]” for “response.”

Molecule: Glucagon
- effect on food intake ([1]; fasted rats, intraperitoneal administration of pharmacological doses): no effect on food intake

Molecule: GLP-1
- effect on feeding ([1]; fasted rats, intracerebroventricular (ICV) administration): inhibited feeding
- effect on feeding behaviour ([1]; peripheral administration): no effect on feeding behaviour

Molecule: CC[C@H](C)[C@H](NC(=O)[C@H](Cc1ccccc1)NC(=O)[C@H](CC(=O)O)NC(=O)[C@H](CCCNC(=N)N)NC(=O)[C@H](C)NC(=O)[C@H](C)NC(=O)[C@H](CC(C)C)NC(=O)[C@H](CC(N)=O)NC(=O)[C@H](CC(=O)O)NC(=O)[C@H](CC(C)C)NC(=O)[C@@H](NC(=O)[C@@H](NC(=O)[C@H](CC(N)=O)NC(=O)[C@H](CCSC)NC(=O)[C@H](CCC(=O)O)NC(=O)[C@H](CC(=O)O)NC(=O)[C@H](CO)NC(=O)[C@H](Cc1ccccc1)NC(=O)[C@H](CO)NC(=O)CNC(=O)[C@H](CC(=O)O)NC(=O)[C@H](C)NC(=O)[C@@H](N)Cc1c[nH]cn1)[C@@H](C)O)[C@@H](C)CC)C(=O)N[C@@H](CC(N)=O)C(=O)N[C@@H](Cc1c[nH]c2ccccc12)C(=O)N[C@@H](CC(C)C)C(=O)N[C@H](C(=O)N[C@@H](CCC(N)=O)C(=O)N[C@H](C(=O)N[C@@H](CCCCN)C(=O)N[C@H](C(=O)N[C@H](C(=O)N[C@@H](CC(=O)O)C(=O)O)[C@@H](C)O)[C@@H](C)CC)[C@@H](C)O)[C@@H](C)CC [synthetic human GLP-2, human GLP-2]
- suppression of milk consumption ([2]; ICV injection, 3 micrograms): 32%
- suppression of milk consumption ([2]; ICV injection, 10 micrograms): 35%
- suppression of milk consumption ([2]; IV injection, 3 micrograms): 24%

Molecule: HADGSFSDEMNTVLDNLATRDFINWLLHTKITD [synthetic porcine GLP-2, porcine GLP-2]
- suppression of sucrose consumption [3]: 38%
